Active and inactive are the calls of the source.
Key:
cells = assay type: functional, cell-based
[1] = target: T1, Nuclear receptor subfamily 0 group B member 1 (Homo sapiens, UniProt P51843); assay type: functional, cell-based;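 further: HEK293T cells transfected with SF-1 and DAX-1 plus StAR promoter luciferase reporter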
T1 sequence (P51843 whole entry): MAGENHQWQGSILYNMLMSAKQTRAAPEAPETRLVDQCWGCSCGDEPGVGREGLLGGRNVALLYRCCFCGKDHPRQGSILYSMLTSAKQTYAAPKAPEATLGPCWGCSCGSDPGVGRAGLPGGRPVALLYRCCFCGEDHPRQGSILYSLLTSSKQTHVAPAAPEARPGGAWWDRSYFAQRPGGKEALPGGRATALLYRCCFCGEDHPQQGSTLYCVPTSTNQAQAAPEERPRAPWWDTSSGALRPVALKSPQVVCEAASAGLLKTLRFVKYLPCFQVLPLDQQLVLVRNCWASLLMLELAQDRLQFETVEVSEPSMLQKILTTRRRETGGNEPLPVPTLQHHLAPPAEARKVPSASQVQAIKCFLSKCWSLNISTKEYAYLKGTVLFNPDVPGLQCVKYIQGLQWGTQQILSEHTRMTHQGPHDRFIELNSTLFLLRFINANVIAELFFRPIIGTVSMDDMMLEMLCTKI

[2] = test system: Streptococcus sp. 'group A'; assay: growth inhibition of control SK(-) GAS strain, dose response, counter-screen for streptokinase expression inhibitor project, luminescence, kanamycin, BacTiterGlo, confirmation (AID 1900); assay type: functional, organism-based
Streptokinase A = target: T2, Streptokinase A (Streptococcus pyogenes serotype M1, UniProt P10520); assay: S. pyogenes streptokinase expression inhibitors, potency, dose response, plasminogen activation absorbance, OD405 (AID 1914); assay type: functional, Streptococcus pyogenes M1 GAS;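 further: secreted streptokinase activity via plasminogen activation per viability signal from cell pellet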
T2 sequence (P10520 whole entry): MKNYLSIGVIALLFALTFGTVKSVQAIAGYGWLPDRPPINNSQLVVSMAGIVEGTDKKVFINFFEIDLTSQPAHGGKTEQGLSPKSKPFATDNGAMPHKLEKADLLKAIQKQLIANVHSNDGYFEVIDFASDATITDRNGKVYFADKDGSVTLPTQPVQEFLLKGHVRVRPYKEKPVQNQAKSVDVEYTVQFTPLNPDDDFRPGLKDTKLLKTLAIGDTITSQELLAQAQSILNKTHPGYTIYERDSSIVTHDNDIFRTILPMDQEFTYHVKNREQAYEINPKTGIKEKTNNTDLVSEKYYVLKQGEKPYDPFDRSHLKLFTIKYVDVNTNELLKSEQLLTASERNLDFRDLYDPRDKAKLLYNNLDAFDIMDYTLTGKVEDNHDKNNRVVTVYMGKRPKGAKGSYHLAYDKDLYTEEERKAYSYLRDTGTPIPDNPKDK

Streptococcus = assay: Group A Streptococcus viability loss, dose response, counter-screen for streptokinase expression inhibitor project, luminescence, BacTiterGlo (AID 1915); assay type: functional, organism-based;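 further: potency for reduction of bacterial viability or growth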
Albumin = Albumin (Bos taurus, UniProt P02769); assay: Counterscreen for inhibitors of T-cell receptor (TCR)-CD3 interaction: Fluorescence-based biochemical high throughput dose response assay to identify inhibitors of T-cell receptor (TCR)-CD3 interaction using a TAMRA-labeled BSA probe.; assay type: functional
Albumin, sequence (P02769 whole entry): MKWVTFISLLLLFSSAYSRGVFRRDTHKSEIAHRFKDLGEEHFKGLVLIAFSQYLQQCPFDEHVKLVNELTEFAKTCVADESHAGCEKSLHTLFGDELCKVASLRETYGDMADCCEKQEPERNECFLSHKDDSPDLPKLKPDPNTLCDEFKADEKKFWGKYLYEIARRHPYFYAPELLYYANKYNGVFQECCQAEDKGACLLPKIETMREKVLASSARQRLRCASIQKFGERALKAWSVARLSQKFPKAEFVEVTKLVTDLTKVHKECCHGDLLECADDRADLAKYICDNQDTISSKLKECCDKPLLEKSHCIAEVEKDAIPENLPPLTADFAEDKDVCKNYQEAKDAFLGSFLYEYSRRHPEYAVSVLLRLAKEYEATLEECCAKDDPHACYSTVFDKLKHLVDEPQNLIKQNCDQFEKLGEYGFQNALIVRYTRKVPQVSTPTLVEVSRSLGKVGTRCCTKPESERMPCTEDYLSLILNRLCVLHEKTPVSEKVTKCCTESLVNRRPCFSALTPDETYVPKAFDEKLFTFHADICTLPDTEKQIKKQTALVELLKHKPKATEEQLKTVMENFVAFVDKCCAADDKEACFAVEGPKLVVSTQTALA

[3] = target: T3, Fructose-bisphosphate aldolase (Mycobacterium tuberculosis, UniProt P9WQA3); assay: Fluorescence-based biochemical high throughput dose response assay for inhibitors of the fructose-bisphosphate aldolase (FBA) of M. tuberculosis.; assay type: functional
T3 sequence (P9WQA3 whole entry): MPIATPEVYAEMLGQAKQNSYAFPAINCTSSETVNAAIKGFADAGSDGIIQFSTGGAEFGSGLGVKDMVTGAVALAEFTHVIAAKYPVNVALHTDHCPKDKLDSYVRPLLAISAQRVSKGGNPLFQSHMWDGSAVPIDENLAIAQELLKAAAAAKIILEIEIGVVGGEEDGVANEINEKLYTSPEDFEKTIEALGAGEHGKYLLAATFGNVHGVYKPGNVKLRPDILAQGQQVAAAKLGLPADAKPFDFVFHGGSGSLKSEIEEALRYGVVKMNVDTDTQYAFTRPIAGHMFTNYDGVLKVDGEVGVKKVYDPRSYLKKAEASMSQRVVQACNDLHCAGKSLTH

[4] = growth suppression of PTEN-null colon cells, dose response, cell-based, HCT116 PTEN knockout (AID 1047); assay type: functional;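 further: HCT116 colon tumor cells with PTEN knocked out; cells exposed to compound for 60 hours before readout; potency for loss of cell viability measured by luminescence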
[5] = growth suppression of beta-catenin-knockout colon cells, dose response, cell-based, HCT116, human colon tumor (AID 1045); assay type: functional;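 further: HCT116 colon tumor cells with beta catenin knocked out; cells exposed to compound for 60 hours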
[6] = human group III sPLA2 inhibitors, dose response, biochemical, QFRET, IC50 (AID 743457);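 further: green fluorescence rise as the enzyme cleaves BODIPY PC-A2 in liposomes; potency for inhibition of the enzyme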

COc1ccc(C(=O)Nc2cccc(OC)c2)cc1
IC50 (cells): > 67.6 µM (inactive)
IC50 [1]: > 67.6 µM (inactive)

CCCCCC(=O)NC(=S)NC1C2CC3CC(C2)CC1C3 (stereo not drawn)
EC50 [2]: 3.42 µM (active)
EC50 (Streptokinase A): 11.5 µM (active)
EC50 (Streptococcus): 27.9 µM (active)
IC50 (Albumin): > 94.1 µM (inactive)

N#Cc1c(-c2ccc(Br)cc2)cc(-c2cccnc2)nc1N
IC50 [3]: 1.2 µM (active)

Cc1ccc(C)c(N2CCN(S(=O)(=O)c3c(C)noc3/C=C/N(C)C)CC2)c1
EC50 [4]: 26.5 µM (active)
EC50 [5]: 32.6 µM (active)
IC50 [6]: > 122 µM (inactive)

Cc1cccnc1NC(=O)COc1ccc2c(c1)CCC2
IC50 (cells): > 67.6 µM (inactive)
IC50 [1]: > 67.6 µM (inactive)

Cc1ccc(N=C(S)NNC(=O)c2ccccc2O)c(C)c1
IC50 [6]: > 122 µM (inactive)
